Reference: ChEMBL document CHEMBL5356959, “Bifunctional backbone modified squaramide dipeptides as amyloid beta (Aβ) aggregation inhibitors” (Bioorg Med Chem, 2024)
One block for each molecule: values may come before it. Calls of active or inactive are those of the source. The calls are words filed in the database; no cut-off is given here.

Key:
N2a = test: Cytotoxicity against mouse Neuro2a cells assessed as reduction in cell viability at 50 uM incubated for 48 hrs by Alamar blue assay; type: toxicity, cell-based
[1] = Metal chelating activity assessed as compound-Cu(II) complex formation by measuring hyperchromic shift incubated for 30 mins by UV-Visible spectrophotometric analysis
[2] = Metal chelating activity assessed as compound-Zn(II) complex formation by measuring hyperchromic shift incubated for 30 mins by UV-Visible spectrophotometric analysis
[3] = Metal chelating activity assessed as compound-Fe(III) complex formation by measuring hyperchromic shift incubated for 30 mins by UV-Visible spectrophotometric analysis
[4] = target: T1, Amyloid-beta precursor protein (Homo sapiens, UniProt P05067); test: Inhibition of amyloid-beta (unknown origin) aggregation at 25 uM at 1:10 compound:amyloidbeta ratio incubated for 24 hrs by ThT fluorescence assay
[5] = target: T1, Amyloid-beta precursor protein; test: Inhibition of amyloid-beta (unknown origin) aggregation at 1:10 compound:amyloidbeta ratio incubated for 24 hrs by ThT fluorescence assay
[6] = Antioxidant activity assessed as DPPH radical scavenging activity at 10 uM incubated under dark condition for 30 mins by absorbance based plate reader analysis; type: functional
[7] = target: T1, Amyloid-beta precursor protein; test: Binding affinity to amyloid-beta (unknown origin) in Tris-HCL buffer assessed as conformational change at 10 uM at 1:1 molar ratio incubated for 24 hrs by circular dichroism analysis
[8] = Competitive binding affinity to Cu(II) assessed as metal chelating activity by measuring compound-Cu(II) complex formation incubated for 30 mins in the presence of NiCl2 by UV-vis spectrophotometric analysis
[9] = Competitive binding affinity to Cu(II) assessed as metal chelating activity by measuring compound-Cu(II) complex formation incubated for 30 mins in the presence of FeCl2 by UV-vis spectrophotometric analysis
[10] = Competitive binding affinity to Fe(III) assessed as metal chelating activity by measuring compound-Fe(III) complex formation incubated for 30 mins in the presence of FeCl2 by UV-Visible spectrophotometric analysis
[11] = Competitive binding affinity to Fe(III) assessed as metal chelating activity by measuring compound-Fe(III) complex formation incubated for 30 mins in the presence of MnCl2 by UV-Visible spectrophotometric analysis
[12] = Competitive binding affinity to Fe(III) assessed as metal chelating activity by measuring compound-Fe(III) complex formation incubated for 30 mins in the presence of CaCl2 by UV-Visible spectrophotometric analysis
[13] = Competitive binding affinity to Fe(III) assessed as metal chelating activity by measuring compound-Fe(III) complex formation incubated for 30 mins in the presence of zinc by UV-Visible spectrophotometric analysis
[14] = Competitive binding affinity to Zn(II) assessed as metal chelating activity by measuring compound-Zn(II) complex formation incubated for 30 mins in the presence of NiCl2 by UV-vis spectrophotometric analysis
[15] = Competitive binding affinity to Cu(II) assessed as metal chelating activity by measuring compound-Cu(II) complex formation incubated for 30 mins in the presence of CaCl2 by UV-vis spectrophotometric analysis
[16] = Metal chelating activity assessed as compound-Zn(II) complex formation by measuring hyperchromic shift at 1:1 molar ratio incubated for 30 mins by UV-Visible spectrophotometric analysis
[17] = Metal chelating activity assessed as compound-Fe(III) complex formation by measuring hyperchromic shift at 1:1 molar ratio incubated for 30 mins by UV-Visible spectrophotometric analysis
[18] = Competitive binding affinity to Cu(II) assessed as metal chelating activity by measuring compound-Cu(II) complex formation incubated for 30 mins in the presence of ZnSO4.7H2O by UV-vis spectrophotometric analysis
[19] = target: T1, Amyloid-beta precursor protein; test: Inhibition of Cu(II)-induced amyloid-beta (unknown origin) aggregation assessed as disaggregation at 10 uM preincubated with CuSO4.5H2O for 30 mins followed by compound addition and measured after 24 hrs by ThT fluorescence assay
[20] = Competitive binding affinity to Zn(II) assessed as metal chelating activity by measuring compound-Zn(II) complex formation incubated for 30 mins in the presence of MnCl2 by UV-vis spectrophotometric analysis
[21] = Competitive binding affinity to Fe(III) assessed as metal chelating activity by measuring compound-Fe(III) complex formation incubated for 30 mins in the presence of NiCl2 by UV-Visible spectrophotometric analysis
[22] = Metal chelating activity assessed as compound-Cu(II) complex formation by measuring hyperchromic shift at 1:1 molar ratio incubated for 30 mins by UV-Visible spectrophotometric analysis
[23] = Competitive binding affinity to Cu(II) assessed as metal chelating activity by measuring compound-Cu(II) complex formation incubated for 30 mins in the presence of MgSO4.7H2O by UV-vis spectrophotometric analysis
[24] = Competitive binding affinity to Fe(III) assessed as metal chelating activity by measuring compound-Fe(III) complex formation incubated for 30 mins in the presence of MgSO4.7H2O by UV-Visible spectrophotometric analysis
[25] = Competitive binding affinity to Fe(III) assessed as metal chelating activity by measuring compound-Fe(III) complex formation incubated for 30 mins in the presence of copper by UV-Visible spectrophotometric analysis
[26] = Competitive binding affinity to Zn(II) assessed as metal chelating activity by measuring compound-Zn(II) complex formation incubated for 30 mins in the presence of FeCl2 by UV-vis spectrophotometric analysis
[27] = Competitive binding affinity to Cu(II) assessed as metal chelating activity by measuring compound-Cu(II) complex formation incubated for 30 mins in the presence of MnCl2 by UV-vis spectrophotometric analysis
[28] = Competitive binding affinity to Zn(II) assessed as metal chelating activity by measuring compound-Zn(II) complex formation incubated for 30 mins in the presence of copper by UV-vis spectrophotometric analysis
[29] = Competitive binding affinity to Zn(II) assessed as metal chelating activity by measuring compound-Zn(II) complex formation incubated for 30 mins in the presence of MgSO4.7H2O by UV-vis spectrophotometric analysis
[30] = Competitive binding affinity to Zn(II) assessed as metal chelating activity by measuring compound-Zn(II) complex formation incubated for 30 mins in the presence of CaCl2 by UV-vis spectrophotometric analysis

T1 sequence (P05067 whole entry): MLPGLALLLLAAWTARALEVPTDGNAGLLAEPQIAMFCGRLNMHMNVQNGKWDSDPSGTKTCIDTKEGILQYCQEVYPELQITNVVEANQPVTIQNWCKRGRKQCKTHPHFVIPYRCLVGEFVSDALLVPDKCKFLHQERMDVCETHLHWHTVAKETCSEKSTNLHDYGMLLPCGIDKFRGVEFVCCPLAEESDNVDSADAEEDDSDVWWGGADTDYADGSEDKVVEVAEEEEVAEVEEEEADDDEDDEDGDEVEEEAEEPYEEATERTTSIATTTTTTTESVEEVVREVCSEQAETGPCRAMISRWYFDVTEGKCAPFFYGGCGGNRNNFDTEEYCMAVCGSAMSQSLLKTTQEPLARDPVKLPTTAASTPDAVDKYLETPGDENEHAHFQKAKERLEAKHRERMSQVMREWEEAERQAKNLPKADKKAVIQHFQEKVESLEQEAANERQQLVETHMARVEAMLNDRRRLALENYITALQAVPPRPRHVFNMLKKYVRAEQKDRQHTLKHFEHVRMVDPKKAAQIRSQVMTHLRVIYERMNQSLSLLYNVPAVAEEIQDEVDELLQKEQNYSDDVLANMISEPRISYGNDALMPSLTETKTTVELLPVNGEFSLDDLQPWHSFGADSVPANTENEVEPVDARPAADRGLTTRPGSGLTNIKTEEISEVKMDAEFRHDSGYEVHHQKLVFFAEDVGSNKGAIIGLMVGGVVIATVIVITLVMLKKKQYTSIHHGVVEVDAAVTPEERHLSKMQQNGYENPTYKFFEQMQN

SMILES: CC(C)(C)OC(=O)N[C@H](CNc1c(N[C@@H](CCCCN)C(=O)O)c(=O)c1=O)Cc1ccccc1
Activity (N2a): Non-Toxic

SMILES: CC(C)(C)OC(=O)N[C@H](CNc1c(N[C@@H](CO)C(=O)O)c(=O)c1=O)Cc1ccccc1
Activity (N2a): Non-Toxic

Activity [1]: Active | Activity [2]: Active | Activity [3]: Active
SMILES: COc1c(NC[C@H](Cc2ccccc2)NC(=O)OC(C)(C)C)c(=O)c1=O

inhibition [4]: Active | IC50 [5]: 14.6 µM
SMILES: CC(C)(C)OC(=O)N[C@H](CNc1c(N[C@@H](Cc2ccccc2)C(=O)O)c(=O)c1=O)Cc1ccccc1
Activity (N2a): Non-Toxic

SMILES: CC(C)(C)OC(=O)N[C@H](CNc1c(N[C@@H](Cc2c[nH]c3ccccc23)C(=O)O)c(=O)c1=O)Cc1ccccc1
Activity (N2a): Non-Toxic

SMILES: CC(C)(C)OC(=O)N[C@H](CNc1c(N[C@@H](CCC(=O)O)C(=O)O)c(=O)c1=O)Cc1ccccc1
Activity (N2a): Non-Toxic

SMILES: CSCC[C@H](Nc1c(NC[C@H](Cc2ccccc2)NC(=O)OC(C)(C)C)c(=O)c1=O)C(=O)O
Activity (N2a): Non-Toxic

SMILES: CC(C)(C)OC(=O)N[C@H](CNc1c(N[C@@H](CC(=O)O)C(=O)O)c(=O)c1=O)Cc1ccccc1
Activity (N2a): Non-Toxic

SMILES: CC(C)(C)OC(=O)N[C@H](CNc1c(NCC(=O)O)c(=O)c1=O)Cc1ccccc1
Activity (N2a): Non-Toxic

inhibition [4]: Active | IC50 [5]: 17.5 µM
SMILES: CC(C)(C)OC(=O)N[C@H](CNc1c(N[C@@H](CC(N)=O)C(=O)O)c(=O)c1=O)Cc1ccccc1
Activity (N2a): Non-Toxic

Activity [1]: inactive | Activity [2]: inactive | Activity [3]: inactive
SMILES: CC(C)(C)OC(=O)N[C@H](CN)Cc1ccccc1

SMILES: CC(C)(C)OC(=O)N[C@H](CNc1c(N[C@@H](Cc2c[nH]cn2)C(=O)O)c(=O)c1=O)Cc1ccccc1
Activity (N2a): Non-Toxic

SMILES: CC(C)(C)OC(=O)N[C@H](CNc1c(N[C@@H](CCC(N)=O)C(=O)O)c(=O)c1=O)Cc1ccccc1
Activity (N2a): Non-Toxic

SMILES: CC(C)C[C@H](Nc1c(NC[C@H](Cc2ccccc2)NC(=O)OC(C)(C)C)c(=O)c1=O)C(=O)O
Activity (N2a): Non-Toxic

Activity [7]: Active | inhibition [4]: Active | Activity [8]: Active | Activity [9]: Active | Activity [10]: Active | Activity [11]: Active | Activity [12]: Active | Activity [13]: Active | Activity [14]: Active | Activity [15]: Active | Activity [16]: Active | Activity [17]: Active | IC50 [5]: 8.08 µM | Activity [18]: Active | inhibition [19]: Active | Activity [20]: Active | Activity [21]: Active | Activity [22]: Active | Activity [23]: Active | Activity [24]: Active | Activity [25]: Active | Activity [26]: Active | Activity [27]: Active | Activity [28]: Active | Activity [29]: Active | Activity [30]: Active
SMILES: C[C@H](O)[C@H](Nc1c(NC[C@H](Cc2ccccc2)NC(=O)OC(C)(C)C)c(=O)c1=O)C(=O)O
Activity [6]: Active | Activity (N2a): Non-Toxic

SMILES: CC(C)(C)OC(=O)N[C@H](CNc1c(N[C@@H](Cc2ccc(O)cc2)C(=O)O)c(=O)c1=O)Cc1ccccc1
Activity (N2a): Non-Toxic

SMILES: CC(C)(C)OC(=O)N[C@H](CNc1c(N[C@@H](CS)C(=O)O)c(=O)c1=O)Cc1ccccc1
Activity (N2a): Non-Toxic

SMILES: CC(C)(C)OC(=O)N[C@H](CNc1c(N[C@@H](CCCNC(=N)N)C(=O)O)c(=O)c1=O)Cc1ccccc1
Activity (N2a): Non-Toxic

SMILES: CC[C@@H](C)[C@H](Nc1c(NC[C@H](Cc2ccccc2)NC(=O)OC(C)(C)C)c(=O)c1=O)C(=O)O
Activity (N2a): Non-Toxic

inhibition [4]: Active | Activity [8]: inactive | Activity [9]: inactive | Activity [14]: Active | Activity [15]: inactive | IC50 [5]: 7.71 µM | Activity [18]: inactive | inhibition [19]: Active | Activity [20]: Active | Activity [22]: inactive | Activity [23]: inactive | Activity [26]: Active | Activity [27]: inactive | Activity [28]: Active | Activity [29]: Active | Activity [30]: Active
SMILES: CC(C)[C@H](Nc1c(NC[C@H](Cc2ccccc2)NC(=O)OC(C)(C)C)c(=O)c1=O)C(=O)O
Activity [6]: Active | Activity (N2a): Non-Toxic

Activity [1]: Active | Activity [2]: Active | Activity [3]: Active
SMILES: COc1c(OC)c(=O)c1=O

SMILES: CC(C)(C)OC(=O)N[C@H](CNc1c(N2CCC[C@H]2C(=O)O)c(=O)c1=O)Cc1ccccc1
Activity (N2a): Non-Toxic

SMILES: C[C@H](Nc1c(NC[C@H](Cc2ccccc2)NC(=O)OC(C)(C)C)c(=O)c1=O)C(=O)O
Activity (N2a): Non-Toxic
